Laboratory results published in patent publication US20110288011A1, “PEPTIDE THERAPEUTIC CONJUGATES AND USES THEREOF” (priority 2008, published 2011).
“Also recorded” adds a separate entry of the source. Square brackets hold non-standard residues; d marks the D form. Ends that are not written are not given here. Peptide text beside a SMILES is read from it. pGlu = O=C1CC[C@@H](C(=O)O)N1

Key:
NTSR1 = NTSR1 (Homo sapiens, UniProt P30989); assay: biochemical
rats = assay: Body temperature (sustained hypothermia) in rats; assay type: in vivo
Experimental: A similar experiment was performed in rats.
A similar experiment was conducted in rats.
A further experiment, conducted over a 12-hour period, was also performed in rats.

mice [1] = assay: Hot plate test (analgesia) in mice; settings: 15 minutes following injection, NT-An2 20 mg/kg, buprenorphine 1 mg/kg
mice brains = assay: In situ brain perfusion of iodinated NT and NT-An2; assay type: in vivo
Excerpt: Following iodination, mice brains were perfused in the carotid artery with either [^125I]-NT or the [^125I]-NT-An2 derivative in Krebs buffer for the indicated times. After the indicated times, brains were further perfused for 30 sec to washout the excess of both compound. Both [^125I]-NT or [^125I]-NT-An2 derivative in brain were quantified using a […]. Results are expressed in terms of brain volume of distribution (ml/100 g) as a function of time.
Brain capillary depletion was performed using Dextran following standard procedures. Both [^125I]-NT or [^125I]-NT-An2 derivative present in brain, capillaries, and parenchyma were quantified and volume of distribution (ml/100 g/2 min) is reported.
To confirm that the NT-An2 conjugate crosses the BBB, both NT and the conjugate were iodinated using standard procedures, and in situ brain perfusion was performed using methods standard in the art. The initial transport was measured as a function of time (FIG. 42). […] Higher levels of NT-An2 were found in the brain parenchyma when compared to NT.

mice [2] = assay: Body temperature (hypothermia induction) in mice; assay type: in vivo; settings: for Δ Max temp: mouse, in vivo
Experimental: We also tested whether higher doses of the conjugate would results in greater induction of hypothermia.
At this time, the infusion was increased to 40 mg/kg/hr.

ob/ob mice = assay: Treatment of obese (ob/ob) mice with Exen-An2: body weight, food intake, glycemia; assay type: in vivo, mouse; settings: higher doses (exendin-4 30 μg/kg, Exen-An2 48 μg/kg), vs control
Experimental: The body weight of each mouse was measured daily. Food intake was estimated based on the mean values for each group, and glycemia was measured one hour following treatment.

DIO mice = assay: Glycemia in DIO mice after bolus injection; assay type: in vivo, mouse; settings: vs control
Experimental: We also tested the ability of the exendin-4-Angiopep-2 dimer conjugate to reduce glycemia in DIO mice. Mice were injected with a bolus containing a control, exendin-4, or the exendin-4-Angiopep-2 dimer conjugate.

mouse brain = settings: in vivo
Experimental: To measure brain uptake of the exendin-4/Angiopep-2 conjugates, we used an in situ perfusion assay. […] Briefly, the right common carotid artery of mice anesthetized with ketamine/xylazine (140/8 mg/kg i.p.) was exposed and ligated at the level of the bifurcation of the common carotid, rostral to the occipital artery. The common carotid was then catheterized rostrally with polyethylene tubing filled with heparin (25 U/ml) and mounted on a 26-gauge needle. […] Prior to the perfusion, the contralateral blood flow contribution was eliminated by severing the heart ventricles. […] Mice were then decapitated to terminate perfusion and the right hemisphere was isolated on ice before being subjected to capillary depletion. Aliquots of homogenates, supernatants, pellets, and perfusates were taken to measure their contents and to evaluate the apparent volume of distribution.

blood-brain barrier = settings: mouse, in vivo

Chain of NTSR1 (P30989 whole entry): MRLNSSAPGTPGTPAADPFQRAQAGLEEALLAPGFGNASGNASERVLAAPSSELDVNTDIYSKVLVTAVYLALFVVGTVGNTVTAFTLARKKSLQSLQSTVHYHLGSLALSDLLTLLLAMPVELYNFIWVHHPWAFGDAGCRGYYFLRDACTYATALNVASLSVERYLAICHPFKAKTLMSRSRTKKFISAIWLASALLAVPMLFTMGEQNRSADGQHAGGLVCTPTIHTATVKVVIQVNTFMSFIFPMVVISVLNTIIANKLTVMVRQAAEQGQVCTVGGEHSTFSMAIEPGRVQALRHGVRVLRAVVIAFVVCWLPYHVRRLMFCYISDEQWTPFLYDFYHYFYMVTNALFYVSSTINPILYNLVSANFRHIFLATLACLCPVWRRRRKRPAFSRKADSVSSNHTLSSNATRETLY

Compound: CC[C@H](C)[C@H](NC(=O)[C@@H](Cc1ccc(O)cc1)NC(=O)[C@@H]1CCCN1C(=O)[C@H](CCCNC(=N)N)NC(=O)[C@H](CCCNC(=N)N)NC(=O)[C@H](CCCCN)NC(C)=O)C(=O)N[C@@H](CC(C)C)C(=O)O [AcLysNT(8-13)D-tyr11, Ac-KRRPD-YIL-OH] (Ac-KRRP[dY]IL-OH)
- IC50 (NTSR1): 5390 nM

Compound: CC[C@H](C)[C@H](NC(=O)[C@H](Cc1ccc(O)cc1)NC(=O)[C@@H]1CCCN1C(=O)[C@H](CCCNC(=N)N)NC(=O)[C@H](CCCNC(=N)N)NC(=O)[C@H](CCCCN)NC(=O)[C@@H]1CCC(=O)N1)C(=O)N[C@@H](CC(C)C)C(=O)O [pGlu-Lys-NT(8-13)] ([pGlu]KRRPYIL-OH; C-terminus assumed)
- IC50 (NTSR1): 1.3 nM

Compound: NT-An2: Neurotensin Angiopep-2-Cys amide conjugate via EMCS/MHA linker; different production batches
- body temperature (rats; 40 mg/kg i.v. bolus followed by infusion, 12-hour period, 40 mg/kg): sustained reduction in body temperature; also recorded: prolonged reduction of body temperature
- body temperature (rats; i.v. 20 mg/kg then 20 mg/kg/hr infusion, 360-minute time course): sustained reduction in body temperature
- maximal temperature drop (rats; i.v. bolus 20 mg/kg then 20 mg/kg/hr for […], after 90 minutes): about 3.5 °C
- latency of foot licking behavior (hot plate) (mice [1]): increased the latency of foot licking behavior in a statistically significant manner
- trapping in the brain capillaries (mice brains; 2 min in situ perfusion, capillary depletion): not trapped in the brain capillaries
- levels in the brain parenchyma (mice brains; 2 min in situ perfusion, capillary depletion, compared to NT): Higher levels
- initial brain uptake (mice brains; in situ brain perfusion, as a function of time, iodinated compounds): higher than for the unconjugated NT
- reduction in body temperature (mice [2]; mice, 5, 15, or 20 mg/kg, monitored for 120 minutes): Small differences between these higher doses
- body temperature (mice [2]; mice, i.v. bolus 20 mg/kg then 20 mg/kg/hr for 2.5 hours, then 40 mg/kg/hr, 360 minute time course): reduction in body temperature
- effect on body temperature (mice [2]; mice, i.v. bolus, monitored 120 minutes, conjugates compared with control): greatest reduction in body temperature; also recorded: larger effect
- body temperature (mice [2]; mice, intravenous, NT 1 mg/kg or equivalent dose of conjugate (2.5 mg/kg)): rapid decrease in the body temperature
- body temperature (mice [2]; mice, intravenous, NT-An2 5 mg/kg): stronger decrease in body temperature
- Δ Max temp (mice [2]; listed as ANG-NT (prep #1)): −4 to −5 °C
- Δ Max temp (mice [2]; listed as ANG-NT (prep #2)): −4 to −5 °C
- Δ Max temp (mice [2]; listed as ANG-NT (prep #3)): −3 to −4 °C
- Δ Max temp (mice [2]; listed as ANG-NT (prep #4)): −2 to −4 °C

Compound: exendin-4
- body weight gain (ob/ob mice; after 10 days of daily treatment): lower than the control; also recorded: reduce weight gain
- food intake (ob/ob mice): reduced; also recorded: reduce food intake
- glycemia (DIO mice): reduced glycemia
- brain distribution (mouse brain): 0.2 ml/100 g/2 min

Compound: leptin(116-130) (SCHLPWASGLETLDS-NH2; UniProt P41159 116-130, looked up, fragment) [leptin116-130]
- transport across the BBB (blood-brain barrier): reduced as compared to in lean mice
